Reference: EP4806899A1, “FUSED RING DERIVATIVE, PREPARATION METHOD THEREFOR AND USE THEREOF IN MEDICINE” (Shanghai Qilu Pharmaceutical Research and Development …, priority 2023, dated 2025)
Each block holds one molecule with its values, some of them ahead of it.

Key:
[1] = added to existing treatment; within 3 months of treatment; cited from earlier work
human CYP11B2 enzyme = target: T1, human CYP11B2 enzyme (Homo sapiens, UniProt P19099); test: Enzyme inhibition activity assay in G402 cells stably expressing human CYP11B2 (aldosterone production from 11-DOC, LC/MS); format: cell-based; conditions: 1 µM 11-DOC, 16 hours, aldosterone detected
T1 construct: the ORF of human CYP11B1 or CYP11B2 were transfected into G402 cells; expressed in transfected cells
T1 sequence (P19099 25-503): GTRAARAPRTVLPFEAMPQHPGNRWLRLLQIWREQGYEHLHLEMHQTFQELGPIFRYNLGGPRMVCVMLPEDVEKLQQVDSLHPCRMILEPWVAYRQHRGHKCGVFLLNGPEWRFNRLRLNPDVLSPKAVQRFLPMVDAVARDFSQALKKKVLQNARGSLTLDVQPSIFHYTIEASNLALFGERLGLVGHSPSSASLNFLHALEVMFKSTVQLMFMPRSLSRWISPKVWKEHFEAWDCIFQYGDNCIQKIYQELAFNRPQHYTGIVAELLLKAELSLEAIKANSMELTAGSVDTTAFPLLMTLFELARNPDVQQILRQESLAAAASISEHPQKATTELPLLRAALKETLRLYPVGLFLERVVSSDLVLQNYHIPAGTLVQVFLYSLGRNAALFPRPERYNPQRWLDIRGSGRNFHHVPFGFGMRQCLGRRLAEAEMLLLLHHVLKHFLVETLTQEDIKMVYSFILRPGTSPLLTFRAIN
How it was run: (§1)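 G402 cells stably expressing human CYP11B2 or CYP11B1, preincubated 1 h with inhibitor in DMEM/F12 plus 2.5% charcoal-stripped FCS, then 16 h with 1 µM 11-DOC or 1 µM 11-DC. Aldosterone or cortisol quantified by LC/MS; IC50 from four-parameter logistic fit versus uninhibited control.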

human CYP11B1 enzyme = target: T2, human CYP11B1 enzyme (Homo sapiens, UniProt P15538); test: Enzyme inhibition activity assay in G402 cells stably expressing human CYP11B1 (cortisol production from 11-DC, LC/MS); format: cell-based; conditions: 1 µM 11-DC, 16 hours, cortisol detected
T2 construct: the ORF of human CYP11B1 or CYP11B2 were transfected into G402 cells; expressed in transfected cells
T2 sequence (P15538 25-503): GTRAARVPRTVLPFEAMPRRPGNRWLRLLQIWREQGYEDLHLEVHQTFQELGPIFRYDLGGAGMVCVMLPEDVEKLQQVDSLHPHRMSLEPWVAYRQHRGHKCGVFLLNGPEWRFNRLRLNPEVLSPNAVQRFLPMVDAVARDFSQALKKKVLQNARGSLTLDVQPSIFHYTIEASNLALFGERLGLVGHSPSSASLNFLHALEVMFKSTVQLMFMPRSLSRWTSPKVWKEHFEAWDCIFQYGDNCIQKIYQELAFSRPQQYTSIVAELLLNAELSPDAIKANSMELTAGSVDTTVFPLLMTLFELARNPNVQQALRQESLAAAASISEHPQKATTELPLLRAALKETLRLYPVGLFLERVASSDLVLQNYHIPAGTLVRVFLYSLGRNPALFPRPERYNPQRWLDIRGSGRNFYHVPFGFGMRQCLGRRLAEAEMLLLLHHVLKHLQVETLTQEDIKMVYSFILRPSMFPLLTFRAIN
How it was run: as §1

[2] = Pharmacokinetic determination in monkeys after gavage administration (P.O.); format: in vivo, Cynomolgus monkeys (Macaca fascicularis); conditions: cynomolgus monkey, po, 1 mg/kg, plasma
Description: (§2) Cynomolgus monkeys (Macaca fascicularis) were used as test animals to study the pharmacokinetic behavior of the compounds of the present disclosure in plasma following gavage administration (P.O.). Plasma samples were collected at specific time points, compound concentrations in plasma were detected by LC-MS/MS, and pharmacokinetic parameters were calculated to reflect the pharmacokinetics in cynomolgus monkeys.
Cynomolgus monkeys, male, Ankaiyibo (Zhanjiang) Biotechnology Co., Ltd.
After administration to cynomolgus monkeys, venous blood samples of 0.3 mL were collected at 0.25, 0.5, 1, 2, 4, 8, and 24 hours and placed in EDTA-K2 test tubes. Plasma was separated by centrifugation at 4 °C, 4000 g for 5 minutes and stored at -80 °C.
• 1) 50 µL of plasma sample was precipitated by adding 200 µL of acetonitrile, vortex mixed, and centrifuged for 15 minutes. • 2) The processed supernatant was diluted with water and analyzed by LC/MS/MS to determine the concentration of the test compound.
(§3) Pharmacokinetic parameters were calculated using WinNonlin 8.3. Cmax represents the maximum plasma concentration, T1/2 represents the terminal elimination half-life, MRTInf represents the mean residence time, and AUC represents the area under the plasma concentration-time curve. Table 6 Pharmacokinetic Parameters of the Compounds of the Present Disclosure in Monkeys

[3] = Pharmacokinetic determination in mice after gavage administration (P.O.); format: in vivo; conditions: male, CD-1, mouse, po, 10 mg/kg, plasma
Description: as §2, with “Mice and rats” for “Cynomolgus monkeys (Macaca fascicularis)”, “evaluate” for “reflect”, “pharmacokinetics.” for “pharmacokinetics in cynomolgus monkeys.”
• Mice, CD-1, male, Zhejiang Vital River Laboratory Animal Technology Co., Ltd. • Rats, Sprague-Dawley, male, Zhejiang Vital River Laboratory Animal Technology Co., Ltd., Shanghai Jihui Experimental Animal Breeding Co., Ltd.
After administration to mice and rats, venous blood samples of 0.03 mL and 0.2 mL, respectively, were collected at 0.0833 (IV), 0.25, 0.5, 1, 2, 4, 8, and 24 hours and placed in EDTA-K2 test tubes. Plasma was separated by centrifugation at 4 °C, 4000 g for 5 minutes and stored at -80 °C.
• 1) 10 µL of plasma sample was precipitated by adding 200 µL of acetonitrile, vortex mixed, and centrifuged for 15 minutes. • 2) The processed supernatant was diluted with water and analyzed by LC/MS/MS to determine the concentration of the test compound.
as §3, with “8.3. The pharmacokinetic parameters for mice P.O. are shown in Table 4, and for rats P.O. in Table 5.” for “8.3.”, “4” for “6”, “Mice” for “Monkeys”

in vivo = conditions: male, Sprague-Dawley, rat, plasma, po, 10 mg/kg
Description: Mice and rats were used as test animals to study the pharmacokinetic behavior of the compounds of the present disclosure in plasma following gavage administration (P.O.). Plasma samples were collected at specific time points, compound concentrations in plasma were detected by LC-MS/MS, and pharmacokinetic parameters were calculated to evaluate the pharmacokinetics.
Pharmacokinetic parameters were calculated using WinNonlin 8.3. […] Cmax represents the maximum plasma concentration, T1/2 represents the terminal elimination half-life, MRTInf represents the mean residence time, and AUC represents the area under the plasma concentration-time curve.

SMILES: CC(=O)S[C@@H]1CC2=CC(=O)CC[C@]2(C)[C@H]2CC[C@@]3(C)[C@@H](CC[C@@]34CCC(=O)O4)[C@H]12 [spironolactone]
patients with resistant hypertension achieving effective control of blood pressure (systolic blood pressure <135 mm Hg) [1]: 60%

IC50 (human CYP11B2 enzyme): 0.0018 µM | IC50 (human CYP11B1 enzyme): 0.316 µM | Cmax ([2]; in vivo): 3.28 µM | MRT inf ([2]; in vivo): 9.14 h | half-life ([2]; in vivo): 8.48 h | AUC(0-t) at 24 h ([2]; in vivo, read-out: AUC0-24): 29.1 µM·h
SMILES: CCC(=O)N[C@@H]1CCOc2c(-c3ccc4c(c3)cc(C#N)n4C)cncc21 [Compound A10-P2]

Cmax [3]: 12.2 µM | MRT inf [3]: 3.59 h | half-life [3]: 1.86 h | AUC(0-t) ([3]; read-out: AUC0-24): 57.3 µM·h | Cmax ([2]; male): 0.834 µM | AUC(0-t) ([2]; male, read-out: AUC0-24): 6 µM·h | AUC(0-t) (in vivo): 109 µM·h | Cmax (in vivo): 11.4 µM | MRT inf (in vivo): 6.41 h | half-life (in vivo): 4.31 h
SMILES: CCC(=O)N[C@@H]1CCCc2c(-c3ccc4c(c3)CCC(=O)N4C)cncc21 [Control Compound, reference compound]
